# Target: Alpha-glucosidase MAL32 (Saccharomyces cerevisiae (strain ATCC 204508 / S288c), UniProt P38158)
# Test: In Vitro α-Glucosidase Inhibitory Assay
# Settings: pH 6.8; 37 °C
# Method: The α-glucosidase inhibition assay had been carried out using baker's yeast α-glucosidase (EC 3.2.1.20) and p-nitrophenyl α-d-glucopyranoside. The test compounds were dissolved in DMSO to prepare the required distributing concentration. α-Glucosidase inhibitory activity was assayed by using 0.1 M phosphate buffer (pH 6.8) at 37 °C. The enzyme (0.1 U/mL) in phosphate buffer saline was incubated with various concentrations of test compounds at 37 °C for 15 min. […] After further incubation at 37 °C for 30 min. […] The sample solution was replaced by DMSO as a control. Acarbose was used as a positive control. All experiments were carried out in triplicates.
# Chain of Alpha-glucosidase MAL32 (P38158 whole entry): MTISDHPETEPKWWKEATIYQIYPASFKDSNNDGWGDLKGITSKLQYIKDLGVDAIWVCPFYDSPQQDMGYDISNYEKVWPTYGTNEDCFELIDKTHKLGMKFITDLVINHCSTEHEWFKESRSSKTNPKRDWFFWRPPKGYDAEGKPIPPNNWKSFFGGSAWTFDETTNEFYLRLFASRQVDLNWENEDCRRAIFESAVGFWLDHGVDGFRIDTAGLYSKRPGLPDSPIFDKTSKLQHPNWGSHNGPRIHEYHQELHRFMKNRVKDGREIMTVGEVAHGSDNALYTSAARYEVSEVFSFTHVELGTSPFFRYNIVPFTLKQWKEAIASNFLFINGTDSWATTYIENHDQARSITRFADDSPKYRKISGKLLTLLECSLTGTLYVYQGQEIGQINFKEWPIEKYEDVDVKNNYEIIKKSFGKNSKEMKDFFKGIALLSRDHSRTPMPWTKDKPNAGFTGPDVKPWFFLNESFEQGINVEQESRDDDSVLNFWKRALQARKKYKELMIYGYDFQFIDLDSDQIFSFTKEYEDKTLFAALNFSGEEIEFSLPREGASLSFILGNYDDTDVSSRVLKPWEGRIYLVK
row,IC50 [µM],Structure (SMILES)
1,9.83,"O=C1Nc2ccccc2C1(c1cn(Cc2ccccc2)c2ccccc12)c1cn(Cc2ccccc2)c2ccccc12 [1,1''-Dibenzyl-1H,1''H-[3,3':3',3''-terindol]-2'(1'H)-one (4f)]"
2,13.6,"CCCCn1cc(C2(c3cn(CCCC)c4ccccc34)C(=O)Nc3ccccc32)c2ccccc21 [1,1''-Dibutyl-[3,3':3',3''-terindolin]-2'-one (4m)]"
3,14.8,"CC(C)Cn1cc(C2(c3cn(CC(C)C)c4ccccc34)C(=O)Nc3ccccc32)c2ccccc21 [1,1''-Diisobutyl-[3,3':3',3''-terindolin]-2'-one (4n)]"
4,10.3,"CC(C)n1cc(C2(c3cn(C(C)C)c4ccccc34)C(=O)Nc3ccccc32)c2ccccc21 [1,1''-Diisopropyl-[3,3':3',3''-terindolin]-2'-one (4l)]"
5,13.7,"Cn1cc(C2(c3cn(C)c4ccccc34)C(=O)Nc3ccccc32)c2ccccc21 [1,1''-Dimethyl-1H,1''H-[3,3':3',3''-terindol]-2'(1'H)-one (4e)]"
6,11,"CCCn1cc(C2(c3cn(CCC)c4ccccc34)C(=O)Nc3ccccc32)c2ccccc21 [1,1''-Dipropyl-[3,3':3',3''-terindolin]-2'-one (4k)]"
7,7.31,"O=C1Nc2ccccc2C1(c1cn(Cc2ccccc2Cl)c2ccccc12)c1cn(Cc2ccccc2Cl)c2ccccc12 [1,1''-bis(2-Chlorobenzyl)-[3,3':3',3''-terindolin]-2'-one (4i)]"
8,7.92,"O=C1Nc2ccccc2C1(c1cn(Cc2cccc(F)c2)c2ccccc12)c1cn(Cc2cccc(F)c2)c2ccccc12 [1,1''-bis(3-Fluorobenzyl)-1H,1''H-[3,3':3',3''-terindol]-2'(1'H)-one (4g)]"
9,9.16,"O=C1Nc2ccccc2C1(c1cn(Cc2ccc(Br)cc2)c2ccccc12)c1cn(Cc2ccc(Br)cc2)c2ccccc12 [1,1''-bis(4-Bromobenzyl)-1H,1''H-[3,3':3',3''-terindol]-2'(1'H)-one (4h)]"
10,146,"O=C1Nc2ccccc2C1(c1c[nH]c2ccccc12)c1c[nH]c2ccccc12 [1H,1''H-[3,3':3',3''-terindol]-2'(1'H)-one (4a)]"
11,20.5,"O=C1Nc2ccc(Br)cc2C1(c1c[nH]c2ccccc12)c1c[nH]c2ccccc12 [5'-Bromo-1H,1''H-[3,3':3',3''-terindol]-2'(1'H)-one (4b)]"
12,30.1,"Cc1ccc2c(c1)C(c1c[nH]c3ccccc13)(c1c[nH]c3ccccc13)C(=O)N2 [5'-Methyl-1H,1''H-[3,3':3',3''-terindol]-2'(1'H)-one (4d)]"

row,Structure (SMILES),IC50 [µM]
1,"O=C1Nc2ccccc2C1(c1cn(Cc2ccccc2F)c2ccccc12)c1cn(Cc2ccccc2F)c2ccccc12 [1,1''-bis(2-Fluorobenzyl)-[3,3':3',3''-terindolin]-2'-one (4j)]",5.98
